From US20240315989A1 (priority 2021, published 2024)
Like-named read-outs stand apart in the source and are kept apart here.

Legend:
σ1 site [1] = target: T1, σ1 site (Homo sapiens, UniProt Q99720); settings: cited from earlier work
σ1 site [2] = target: T1, σ1 site; settings: read-out: Affinity for σ1 Site (Ki or KD values); cited from earlier work
SARS-CoV-2 [3] = settings: A549-ACE2; cited from earlier work
severe COVID-19 = assay: AP-HP observational multicenter study: FIASMA medication use and intubation or death in severe COVID-19; assay type: in vivo, human; settings: for Number of events/Number of patients N/N: each FIASMA class and molecule at baseline, severe COVID-19 (N = 2,846); for Number of events/Number of patients (%): each FIASMA class and molecule; for Univariate Cox regression in 1:2 ratio matched analytic samples HR: vs matched control groups
Description: COVID-19 was ascertained by a positive reverse-transcriptase-polymerase-chain-reaction (RT-PCR) test on nasopharyngeal or oropharyngeal swab specimens. Severe COVID-19 was defined as having at least one of the following criteria at hospital admission: respiratory rate >24 breaths/min or <12 breaths/min, resting peripheral capillary oxygen saturation in ambient air <90%, temperature >40° C., systolic blood pressure <100 mm Hg, or high lactate levels >2 mmol/L.^22
AP-HP Health Data Warehouse (‘Entrepôt de Données de Santé (EDS)’) contains all available clinical data on all inpatient visits for COVID-19 to 36 Greater Paris university hospitals. The data included patient demographic characteristics, vital signs, laboratory tests, and RT-PCR test results, medication administration data during the hospitalization for COVID-19, current diagnoses, discharge disposition, ventilator use data, and death certificates.
We obtained the following data for each patient at the time of the hospitalization: sex; age, which was categorized into four classes based on the OpenSAFELY study results^23 (i.e., 18-50, 51-70, 71-80, and 81+); hospital, which was categorized into four classes following the administrative clustering of AP-HP hospitals in Paris and its suburbs based on their geographical location (i.e., AP-HP Centre—Paris University, Henri Mondor University Hospitals and at home hospitalization; AP-HP Nord and Hôpitaux Universitaires Paris Seine-Saint-Denis; AP-HP Paris Saclay University; and AP-HP Sorbonne University); obesity, which was defined as having a body mass index higher than 30 kg/m^2 or an International Statistical Classification of Diseases and Related Health Problems (ICD-10) diagnosis code for obesity (E66.0, E66.1, E66.2, E66.8, and E66.9); self-reported current smoking status; and any medication prescribed according to compassionate use or as part of a clinical trial (e.g., hydroxychloroquine, azithromycin, remdesivir, tocilizumab, sarilumab, or dexamethasone). To take into account possible confounding by indication bias for FIASMA medications, we recorded whether patients had any current diagnosis, based on ICD-10 diagnosis codes recorded during the visit, of neoplasms and diseases of the blood (C00-D89); mental disorders (F01-F99); diseases of the nervous system (G00-G99); cardiovascular disorders (I00-I99); respiratory disorders (J00-J99); digestive disorders (K00-K95); dermatological disorders (L00-L99); diseases of the musculoskeletal system (M00-M99); diseases of the genitourinary system (N00-N99); endocrine disorders (E00-E89); and eye-ear-nose-throat disorders (H00-H95).
FIASMA medication use was defined as receiving at least one FIASMA medication within the first 24 hours of hospital admission. To minimize potential confounding effects of late prescription of FIASMA medications, patients who initiated an FIASMA medication more than 24 hours after hospital admission were excluded from the analyses. Patients who received at study baseline an antipsychotic or a benzodiazepine while being hospitalized in an intensive care unit, possibly as an aid to oral intubation, were also excluded.
Study baseline was defined as the date of hospital admission for COVID-19. The primary end point was the occurrence of intubation and/or death. For patients who died after intubation, the timing of the primary end point was defined as the time of intubation.
We calculated frequencies of all baseline characteristics described above in patients receiving or not receiving an FIASMA medication and compared them using standardized mean differences (SMD). SMD are useful to evaluate between-group differences in baseline characteristic variables independently of their unit of measurement (i.e., for both continuous and categorical variables^26-28). We considered SMD greater than 0.1 as reflecting significant differences, a threshold recommended for declaring imbalance.^27

SARS-CoV-2 [4] = settings: cited from earlier work
SARS-CoV-2 infection = assay: Retrospective cohort (BJC Healthcare): antidepressant exposure and ED or hospital encounter within 30 days; assay type: in vivo, human; settings: for ED or hospital encounter within 30 days, %: share of exposed outpatients with an encounter after a positive SARS-CoV-2 test; for Unadjusted Odds Ratio, ED or hospital encounter within 30 days / Adjusted Odds Ratio, ED or hospital encounter within 30 days: vs No Antidepressant (Ref); for Unadjusted Odds Ratio, ED or hospital encounter within 30 days: logistic regression; for Adjusted Odds Ratio, ED or hospital encounter within 30 days: multivariable logistic regression, complete cases
pp-VSV-SARS-CoV-2 spike = settings: cited from earlier work
COVID-19 = settings: p<0.05; cited from earlier work
SARS-CoV-2 [5] = settings: cited from earlier work; remark: listed apart in the source
[6] = one-compartment model; cited from earlier work
sigma-1 receptors = sigma-1 receptors (Rattus norvegicus, UniProt Q9R0C9); settings: cited from earlier work
[7] = vs no FIASMA medication, Table 33
[8] = paracetamol group matched to FIASMA respiratory system medication, Table 34

T1 sequence (Q99720 whole entry): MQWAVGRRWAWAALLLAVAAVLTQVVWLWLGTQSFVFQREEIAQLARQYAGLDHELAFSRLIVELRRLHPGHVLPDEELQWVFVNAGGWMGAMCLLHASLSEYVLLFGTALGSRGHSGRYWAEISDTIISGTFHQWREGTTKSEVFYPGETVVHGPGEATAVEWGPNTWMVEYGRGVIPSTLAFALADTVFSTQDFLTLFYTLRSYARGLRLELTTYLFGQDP
Chain of sigma-1 receptors (Q9R0C9 whole entry): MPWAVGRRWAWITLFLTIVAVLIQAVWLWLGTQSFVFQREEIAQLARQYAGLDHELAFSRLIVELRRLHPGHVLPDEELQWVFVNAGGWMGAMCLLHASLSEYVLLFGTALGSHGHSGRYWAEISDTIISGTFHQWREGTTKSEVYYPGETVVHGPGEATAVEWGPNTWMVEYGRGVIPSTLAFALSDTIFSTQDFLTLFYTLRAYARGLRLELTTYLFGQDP

COc1ccc2c(c1)[C@]13CCCC[C@@H]1[C@H](C2)N(C)CC3 [Dextromethorphan]
Function on σ1 Site (σ1 site [1]): Agonist | Ki (σ1 site [2]): < 500 nM | SARS-CoV-2 viral replication (SARS-CoV-2 [3]): increase viral replication

OCCOCCN1CCN(C(c2ccccc2)c2ccc(Cl)cc2)CC1 (centres unmarked) [Hydroxyzine]
Number of events/Number of patients N/N (severe COVID-19; Table 33): 11/31

CN(C)C(=O)C(CCN1CCC(O)(c2ccc(Cl)cc2)CC1)(c1ccccc1)c1ccccc1 [Loperamide]
Number of events/Number of patients N/N (severe COVID-19; Table 33): 2/9 | Number of events/Number of patients (%) (severe COVID-19; Table 33): (22.2) % | Univariate Cox regression in 1:2 ratio matched analytic samples HR (severe COVID-19; Table 33): 0.24 | Analysis weighted by inverse-probability-weighting weights HR (severe COVID-19; [7]): 0.15 | Crude Cox regression analysis HR (severe COVID-19; [7]): 0.39 | Multivariable Cox regression analysis HR (severe COVID-19; [7]): 0.25

COc1ccc(N2C[C@H](CN3CCC(O)(c4ccc5c(c4)OCO5)CC3)OC2=O)cc1 [Panamesine (EMD 57445), Panamesine]
Function on σ1 Site (σ1 site [1]): Antagonist | Ki (σ1 site [2]): < 50 nM

CC(=O)Nc1ccc(O)cc1 [Paracetamol]
Number of events/Number of patients in the matched groups (%) (severe COVID-19; [8]): (21.4) % | Number of events/Number of patients in the matched groups N/N (severe COVID-19; [8]): 3/14 | Number of events/Number of patients in the matched groups (%) (severe COVID-19; paracetamol group matched to other FIASMA cardiovascular system medications, Table 34): (48.5) %

CN(C)CCC=C1c2ccccc2CCc2ccccc21 [amitriptyline]
Infection with SARS-CoV-2 (SARS-CoV-2 [4]; human Caco-2 cells): prevented infection | ED or hospital encounter within 30 days, % (SARS-CoV-2 infection): 23.6% | Unadjusted Odds Ratio, ED or hospital encounter within 30 days (SARS-CoV-2 infection): 2.90 | Adjusted Odds Ratio, ED or hospital encounter within 30 days (SARS-CoV-2 infection): 1.09 | Infection with pp-VSV-SARS-CoV-2 spike (pp-VSV-SARS-CoV-2 spike; freshly isolated nasal epithelial cells of volunteers treated with a low dose): prevented infection

CN(C)CCC[C@@]1(c2ccc(F)cc2)OCc2cc(C#N)ccc21 [escitalopram]
ED or hospital encounter within 30 days, % (SARS-CoV-2 infection): 16.2% | Risk of intubation or death because of COVID-19 (COVID-19): lower risk of intubation or death | Infection with pp-VSV-SARS-CoV-2 spike (pp-VSV-SARS-CoV-2 spike; Vero cells): prevent infection | Inhibiting SARS-CoV-2 replication at a concentration of (SARS-CoV-2 [5]): at a concentration of 0.8 μg/ml

CNCCC(Oc1ccc(C(F)(F)F)cc1)c1ccccc1 (centres unmarked) [fluoxetine]
Function on σ1 Site (σ1 site [1]): Agonist | Entry and propagation of SARS-CoV-2 (SARS-CoV-2 [4]; Vero-E6 cell lines): efficiently inhibit entry and propagation | volume of distribution [V/F] [6]: 690 L | ED or hospital encounter within 30 days, % (SARS-CoV-2 infection): 16.2% | Risk of intubation or death because of COVID-19 (COVID-19): lower risk of intubation or death | Infection with pp-VSV-SARS-CoV-2 spike (pp-VSV-SARS-CoV-2 spike; Vero cells): prevent infection

CN(C)CCCN1c2ccccc2CCc2ccccc21 [imipramine]
Function on σ1 Site (σ1 site [1]): Agonist | Ki (σ1 site [2]): < 500 nM | ED or hospital encounter within 30 days, % (SARS-CoV-2 infection): 23.5%

Fc1ccc([C@@H]2CCNC[C@H]2COc2ccc3c(c2)OCO3)cc1 [paroxetine]
Univariate Cox regression in 1:2 ratio matched analytic samples HR (severe COVID-19; Table 33): 0.54 | Analysis weighted by inverse-probability-weighting weights HR (severe COVID-19; [7]): 0.57 | Crude Cox regression analysis HR (severe COVID-19; [7]): 0.69 | ED or hospital encounter within 30 days, % (SARS-CoV-2 infection): 15.1% | Unadjusted Odds Ratio, ED or hospital encounter within 30 days (SARS-CoV-2 infection): 1.67 | Adjusted Odds Ratio, ED or hospital encounter within 30 days (SARS-CoV-2 infection): 0.64 | Ki (sigma-1 receptors): 2040 nM

CN[C@H]1CC[C@@H](c2ccc(Cl)c(Cl)c2)c2ccccc21 [sertraline]
Number of events/Number of patients N/N (severe COVID-19; Table 33): 7/21 | Number of events/Number of patients (%) (severe COVID-19; Table 33): (33.3) % | Analysis weighted by inverse-probability-weighting weights adjusted for unbalanced covariates HR (severe COVID-19; [7]): 0.82 | Crude Cox regression analysis HR (severe COVID-19; [7]): 0.58 | Multivariable Cox regression analysis HR (severe COVID-19; [7]): 0.67 | Function on σ1 Site (σ1 site [1]): Agonist | ED or hospital encounter within 30 days, % (SARS-CoV-2 infection): 17.9%
